Test results from patent publication US20260216140A1, “USE OF ERGOTHIONEINE IN PREPARATION OF PRODUCT FOR PREVENTING OR INHIBITING CELL DAMAGE CAUSED BY ACETALDEHYDE” (BLOOMAGE BIOTECHNOLOGY CORPORATION LIMITED, priority 2022, published 2026).
Where a name gives a salt, the structure may show the parent alone.

Columns and labels:
Type in all cases: cell-based
CA9-22 cells [1] = assay: MTT cell activity of CA9-22 cells co-cultured with acetaldehyde (cell damage dose finding); settings: for Cell activity: 1 day, MTT, T/NT vs untreated = 100%
Experimental: • Experimental materials: acetaldehyde, DMEM medium. • Experimental sample solutions: 17.7 M acetaldehyde was diluted with DMEM medium to prepare experimental sample solutions with different final concentrations, and the concentrations are shown in Table 2. • Methods: After CA9-22 cells were co-cultured with different experimental sample solutions for 1 day, the experimental sample solutions were removed and MTT was added. After 3 hours, the supernatant was carefully aspirated and dimethyl sulfoxide (DMSO) was added. The absorbance of each well at 550 nm was detected by a microplate reader. The untreated well was used as control, the absorbance of the sample well was defined as T, the absorbance of the untreated well was defined as NT, NT was taken as 100%, and the ratio of T/NT of the sample well was taken as the cell activity.

CA9-22 cells [2] = assay: MTT cell activity of CA9-22 cells co-cultured with acetaldehyde plus ergothioneine (inhibition of acetaldehyde cell damage); settings: for Cell activity: 1 day, MTT
Text: • Experimental materials: acetaldehyde, ergothioneine and DMEM medium. • Experimental sample solutions: ergothioneine powder and 17.7M acetaldehyde were respectively diluted with DMEM medium, and then the two solutions were mixed in different ratios to prepare experimental sample solutions with different final concentrations, and the concentrations are shown in Table 3. • Methods: After CA9-22 cells were co-cultured with different experimental sample solutions for 1 day, the experimental sample solutions were removed and MTT was added. After 3 hours, the supernatant was carefully aspirated and dimethyl sulfoxide (DMSO) was added. The absorbance of each well at 550 nm was detected by a microplate reader. The untreated wells was used as control, the absorbance of the sample wells was defined as T, the absorbance of the untreated well was defined as NT, NT was taken as 100%, and the ratio of T/NT of the sample well was taken as the cell activity. On the basis of meeting the requirements of significant difference, the greater the cell activity %, the better the effect of inhibiting cell damage caused by acetaldehyde.

CA9-22 cells [3] = assay: MTT cell activity of CA9-22 cells co-cultured with ergothioneine alone (cytotoxicity); settings: for Cell activity: 1 day, MTT, T/NT vs untreated = 100%
Experimental: • Experimental materials: ergothioneine, DMEM medium. • Experimental sample solutions: ergothioneine powder was dissolved in DMEM medium to prepare experimental sample solutions with different final concentrations, and the concentrations are shown in Table 1. • Methods: CA9-22 cells purchased from ATCC were co-cultured with different experimental sample solutions for 1 day, then the experimental sample solutions were removed and MTT was added. After 3 hours, the supernatant was carefully aspirated and dimethyl sulfoxide (DMSO) was added. The absorbance of each well at 550 nm was detected by a microplate reader. The untreated well was used as control, the absorbance of the sample well was defined as T, the absorbance of the untreated well was defined as NT, NT was taken as 100%, and the ratio of T/NT of the sample well was taken as the cell activity.

Compound: CC=O [Acetaldehyde, acetaldehyde]
- Cell activity (CA9-22 cells [1]; acetaldehyde 0.0001M): 96%
- Cell activity (CA9-22 cells [1]; acetaldehyde 0.001M): 93%
- Cell activity (CA9-22 cells [1]; acetaldehyde 0.005M): 93%
- Cell activity (CA9-22 cells [1]; acetaldehyde 0.01M): 89%
- Cell activity (CA9-22 cells [1]; acetaldehyde 0.02M): 70%
- Cell damage after treating cells (CA9-22 cells [1]; different concentrations of acetaldehyde, more obvious with increasing concentration): will cause cell damage
- Cell activity (CA9-22 cells [2]; acetaldehyde 0.02 M alone, no ergothioneine (sample 2)): 70%
- Cell activity (CA9-22 cells [2]; acetaldehyde 0.02 M alone, no ergothioneine (sample 2), listed as acetaldehyde): 70%

Compound: C[N+](C)(C)[C@@H](Cc1c[nH]c(=S)[nH]1)C(=O)[O-] [Ergothioneine, 2-mercaptohistidine trimethyl internal salt]
- Cytotoxicity (CA9-22 cells [3]; 0.1-12.5 μM, test conditions of Example 1): no cytotoxicity
- Cell activity (CA9-22 cells [3]; ergothioneine 0.1 μM): 101%
- Cell activity (CA9-22 cells [3]; ergothioneine 0.5 μM): 100%
- Cell activity (CA9-22 cells [3]; ergothioneine 2.5 μM): 107%
- Cell activity (CA9-22 cells [3]; ergothioneine 12.5 μM): 106%
- Cell activity (CA9-22 cells [2]; acetaldehyde 0.02 M + ergothioneine 0.01 μM (sample 3)): 71%
- Cell activity (CA9-22 cells [2]; acetaldehyde 0.02 M + ergothioneine 0.05 μM (sample 4)): 76%
- Cell activity (CA9-22 cells [2]; acetaldehyde 0.02 M + ergothioneine 0.1 μM (sample 5)): 81%
- Cell activity (CA9-22 cells [2]; acetaldehyde 0.02 M + ergothioneine 0.5 μM (sample 6)): 83%
- Cell activity (CA9-22 cells [2]; acetaldehyde 0.02 M + ergothioneine 2.5 μM (sample 7)): 83%
- Cell activity (CA9-22 cells [2]; acetaldehyde 0.02 M + ergothioneine 12.5 μM (sample 8)): 85%
- Effect on cell damage caused by acetaldehyde (CA9-22 cells [2]; acetaldehyde 0.02 M, ergothioneine added): can reduce the cell damage caused by acetaldehyde
